Test results taken from ChEMBL document CHEMBL1149239, “Synthesis and pharmacological evaluation of piperidinoalkanoyl-1,2,3,4-tetrahydroisoquinoline derivatives as novel specific bradycardic agents” (2004).

Assays:
Assay type in all cases: functional
Cavia porcellus = species: Cavia porcellus; assay: Concentration required to produce 30% reduction from the initial beat rates in isolated guinea pig right atria.
Rattus norvegicus [1] = assay: Reduction of spontaneous sinus heart rate (HR) when […] in conscious rats; Reduced from -5.28 to -20.0 beats/min
Rattus norvegicus [2] = assay: Reduction of spontaneous sinus heart rate (HR) when […] in conscious rats; Reduced from -23.5 to -87.8 beats/min
Rattus norvegicus [3] = assay: Reduction of mean blood pressure (MBP) when […] in conscious rats; Reduced from 2.12 to 2.0 mmHg

Row | Compound | EC30 (Cavia porcellus) [nM] | also measured
1 | COc1cc2c(cc1OC)CN(C(=O)CCN1CCC(CCOc3ccc4c(c3)OCO4)CC1)CC2 | 450 | –
2 | COc1ccc(CCN(C)CCCN2CCc3cc(OC)c(OC)cc3CC2=O)cc1OC [ZATEBRADINE] | 260 | –
3 | COc1cc2c(cc1OC)CN(C(=O)CCN1CCC(COc3ccc4c(c3)OCO4)CC1)CC2 | 470 | Heart rate (Rattus norvegicus [1]): -20 beats min-1
4 | COc1cc2c(cc1OC)CN(C(=O)CCN1CCC(CCCOc3ccc4c(c3)OCO4)CC1)CC2 | 620 | –
5 | COc1cc2c(cc1OC)CN(C(=O)C1CCCN(CCCOc3ccc4c(c3)OCO4)C1)CC2 (stereo not given) | 370 | –
6 | COc1cc2c(cc1OC)CN(C(=O)CCN1CCCC(COc3ccc4c(c3)OCO4)C1)CC2 (stereo not given) | 170 | –
7 | COc1cc2c(cc1OC)CN(C(=O)CCN1CCC(Oc3ccc4c(c3)OCO4)CC1)CC2 | 440 | Heart rate (Rattus norvegicus [2]): -87.8 beats min-1; MBP (Rattus norvegicus [3]): 2 mmHg
8 | COc1cc2c(cc1OC)CN(C(=O)CCN1CCCC(CCOc3ccc4c(c3)OCO4)C1)CC2 (stereo not given) | 340 | –
9 | COc1cc2c(cc1OC)CN(C(=O)CCN1CCCC(CCCOc3ccc4c(c3)OCO4)C1)CC2 (stereo not given) | 390 | –
10 | COc1cc2c(cc1OC)CN(C(=O)CCN1CCCC(Oc3ccc4c(c3)OCO4)C1)CC2 (stereo not given) | 3030 | –
11 | COc1cc2c(cc1OC)CN(C(=O)CCCN1CCCC(COc3ccc4c(c3)OCO4)C1)CC2 (stereo not given) | 850 | –
12 | COc1cc2c(cc1OC)CN(C(=O)CN1CCCC(COc3ccc4c(c3)OCO4)C1)CC2 (stereo not given) | 1170 | –
